Assay results: patent publication US20230115176A1 (Ra Pharmaceuticals, Inc., priority 2019, published 2023)
Converted amounts (≈) assume the structure as drawn.

Columns and labels:
[1] = target: human C5 complement protein (Homo sapiens, UniProt P01031); assay: Surface plasmon resonance (SPR), immobilized human C5, 37° C. (Example 18, Table 24); type: binding; conditions: lowest value obtained where a range of concentrations was analyzed
[2] = Kinetic solubility in PBS pH 7.4, HPLC-UV (Example 21, Table 27); type: physicochemical; conditions: phosphate buffered saline, aqueous buffer, kinetic from dmso stock, 0.5 M PBS, shaken minimum 24 h at approximately 25° C., HPLC-UV 270 nm
Summary of the method: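 10 mM DMSO stock diluted into 0.05 M PBS pH 7.4 (5% DMSO final), in triplicate, shaken ≥24 h at ~25 °C, then filtered by centrifugation. Supernatant concentration by HPLC-UV at 270 nm against external DMSO standards (15.6–500.0 μM).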

[3] = target: T1, Human C5 (Homo sapiens, UniProt P01031); assay: Red blood cell (RBC) hemolysis assay, luminescent (Example 24, Table 29); type: cell-based; conditions: sheep EA cells, […] C5-depleted human serum, 0.5 nM human C5, 1 hour at 37° C., luminescence (Table 29)
T1 construct: purchased Complement Technology
T1 sequence (P01031 19-1676): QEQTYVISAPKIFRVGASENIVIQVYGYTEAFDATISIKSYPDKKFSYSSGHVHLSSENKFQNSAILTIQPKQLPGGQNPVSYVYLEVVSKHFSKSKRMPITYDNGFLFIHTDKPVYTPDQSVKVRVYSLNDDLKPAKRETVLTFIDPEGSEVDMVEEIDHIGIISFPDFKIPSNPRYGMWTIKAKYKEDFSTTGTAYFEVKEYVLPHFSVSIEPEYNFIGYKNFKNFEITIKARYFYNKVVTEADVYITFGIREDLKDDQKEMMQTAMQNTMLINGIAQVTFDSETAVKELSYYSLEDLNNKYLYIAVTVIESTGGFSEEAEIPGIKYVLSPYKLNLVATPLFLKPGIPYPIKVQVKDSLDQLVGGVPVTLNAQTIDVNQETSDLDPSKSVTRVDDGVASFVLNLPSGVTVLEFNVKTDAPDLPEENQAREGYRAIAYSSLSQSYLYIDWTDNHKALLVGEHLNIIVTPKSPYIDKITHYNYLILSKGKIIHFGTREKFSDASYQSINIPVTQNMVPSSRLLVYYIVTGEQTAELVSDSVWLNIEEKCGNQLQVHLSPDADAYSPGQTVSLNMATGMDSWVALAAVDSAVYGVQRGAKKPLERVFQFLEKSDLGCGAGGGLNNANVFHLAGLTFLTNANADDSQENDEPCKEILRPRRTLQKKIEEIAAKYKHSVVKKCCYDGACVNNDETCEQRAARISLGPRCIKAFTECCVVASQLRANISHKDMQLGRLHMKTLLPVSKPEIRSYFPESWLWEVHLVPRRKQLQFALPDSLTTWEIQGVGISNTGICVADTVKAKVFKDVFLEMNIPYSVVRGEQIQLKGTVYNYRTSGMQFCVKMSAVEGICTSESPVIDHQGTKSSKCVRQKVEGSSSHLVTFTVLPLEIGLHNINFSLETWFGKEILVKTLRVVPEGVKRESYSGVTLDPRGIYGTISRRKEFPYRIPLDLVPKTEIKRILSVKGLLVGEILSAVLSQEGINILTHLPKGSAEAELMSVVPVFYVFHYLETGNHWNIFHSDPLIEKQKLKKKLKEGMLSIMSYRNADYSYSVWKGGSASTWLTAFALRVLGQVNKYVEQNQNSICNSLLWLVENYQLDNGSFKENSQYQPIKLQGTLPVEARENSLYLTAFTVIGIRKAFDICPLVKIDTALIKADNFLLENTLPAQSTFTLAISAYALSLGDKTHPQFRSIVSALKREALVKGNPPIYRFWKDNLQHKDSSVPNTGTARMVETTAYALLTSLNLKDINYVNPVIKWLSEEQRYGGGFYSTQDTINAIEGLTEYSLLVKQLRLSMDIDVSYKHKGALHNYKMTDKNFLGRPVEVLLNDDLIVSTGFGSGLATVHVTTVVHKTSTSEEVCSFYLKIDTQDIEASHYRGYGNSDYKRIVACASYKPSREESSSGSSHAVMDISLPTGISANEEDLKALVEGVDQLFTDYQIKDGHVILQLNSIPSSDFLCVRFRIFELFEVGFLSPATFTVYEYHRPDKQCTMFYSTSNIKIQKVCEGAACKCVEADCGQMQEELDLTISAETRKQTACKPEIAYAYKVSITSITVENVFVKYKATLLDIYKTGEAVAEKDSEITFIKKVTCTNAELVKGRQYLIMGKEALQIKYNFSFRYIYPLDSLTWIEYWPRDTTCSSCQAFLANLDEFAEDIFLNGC
Source text: Numbers in parenthesis following the compound number indicate alternate enantiomers (as distinguished by retention time during chromatographical separation).

Chain of human C5 complement protein (P01031 19-1676): as above

Kd [1] [pM]	solubility kinetic [2] [µM]	Compound	IC50 [3] [pM]
–	398 (≈ 204 µg/mL)	CCCCCOc1cc(N2CC(C)CN(Cc3ccc(CC(=O)N(C)C)cc3OC)C2=O)ccc1OC (centres unmarked) [SC0017]	28200
–	43 (≈ 25.1 µg/mL)	CCCCCOc1cc(N2CC[C@H](C)N(Cc3cccc4c3ccn4CC(=O)N(C)c3cccnc3)C2=O)ccc1OC [SC0011]	25200
–	111 (≈ 67.4 µg/mL)	CCCCCOc1cc(N2CC[C@H](C)N(Cc3cccc4c3ccn4CC(=O)N3CCO[C@H](COC)C3)C2=O)ccc1OC [SC0002]	8700
–	167 (≈ 101 µg/mL)	CCCCCOc1cc(N2CC[C@H](C)N(Cc3cccc4c3ccn4CC(=O)N3CCO[C@@H](COC)C3)C2=O)ccc1OC [SC0009]	18500
–	445 (≈ 276 µg/mL)	CCCCCOc1cc(N2CC[C@H](C)N(Cc3cccc4c3ccn4CC(=O)N3CCOC(CN(C)C)C3)C2=O)ccc1OC (some centres unmarked) [SC0007]	13600
–	103 (≈ 53.6 µg/mL)	CCCCCOc1cc(N2CC[C@H](C)N(Cc3cccc4c3ccn4CC(=O)N(C)C)C2=O)ccc1OC [SC0008]	18500
–	< 10	C=C1CN(Cc2cc(F)ccc2OC)C(=O)N(c2ccc(OC)c(OCCCCC)c2)C1 [SC0060]	22500
–	66 (≈ 36.1 µg/mL)	CCCCCOc1cc(N2CC[C@H](C)N(Cc3cccc4c3ccn4CC(=O)N3CCCC3)C2=O)ccc1OC [SC0001]	8400

Continued, compound first:

Compound	Kd [1] [pM]	solubility kinetic [2] [µM]	IC50 [3] [pM]
CCCCCOc1cc(N2CCCN(Cc3cccc4c3c(Br)cn4CC(=O)N(C)C)C2=O)ccc1OC [CU0543]	16	256 (≈ 150 µg/mL)	–
COc1cc(CNC(=O)c2cocn2)ccc1CN1CCCN(c2ccc(OC)c(OCCCC3CCC3)c2)C1=O [CU0565]	24	–	–
COc1ccc(N2CCCN(Cc3cccc4c3ccn4CC(=O)N(C)C)C2=O)cc1OCCC[C@H]1C[C@@H]1C (racemic) [CU0681]	2200	–	–
CCCCCOc1cc(N2CCCN(Cc3ccnc4c3c(Cl)cn4CCO)C2=O)ccc1OC [CU0576]	221	–	–
COc1cc(CC(=O)N2CCOCC2)ccc1CN1CCCN(c2ccc(OC)c(OCCCC3CC3(F)F)c2)C1=O (centres unmarked) [CU0601]	133	–	–
CCCCCOc1cc(N2CCCN(Cc3cccc4c3ccn4[C@H]3CCN(C)C3=O)C2=O)ccc1OC [CU0644]	1110	450 (≈ 233 µg/mL)	–
COc1ccc(N2CCCN(Cc3cccc4c3c(Cl)cn4CC(=O)N(C)C)C2=O)cc1OCCC[C@H]1C[C@H]1C (racemic) [CU0515]	320	< 10	–
CCCCCOc1cc(N2CCCN(Cc3ccnc4c3c(Cl)cn4CC(=O)N3CC[C@H](OC)C3)C2=O)ccc1OC [CU0504]	254	–	–
CCCCCOc1cc(N2CCCN(Cc3ccnc4c3c(Cl)cn4CC(=O)NO)C2=O)ccc1OC [CU0575]	304	–	–
COc1cc(CCN2CCCC2)ccc1CN1CCCN(c2ccc(OC)c(OCCCC3CC3)c2)C1=O [CU0662]	1150	–	–
CCCCCOc1cc(N2CCCN(Cc3ccnc4c3c(Cl)cn4CC(=O)NC3COC3)C2=O)ccc1OC [CU0540]	158	< 10	–
CCCCCOc1cc(N2CCCN(Cc3ccnc4c3c(Cl)cn4CC(=O)N(C)O)C2=O)ccc1OC [CU0514]	93	–	–
CCCCCOc1cc(N2CCCN(Cc3ccnc4c3c(Cl)cn4CC(=O)N3CCCC3)C2=O)ccc1OC [CU0541]	310	61 (≈ 34.7 µg/mL)	–
COc1ccc(N2CCCN(Cc3cccc4c3c(Cl)cn4CC(=O)N(C)C)C2=O)cc1OCCC[C@H]1C[C@@H]1C (racemic) [CU0524]	38	< 10	–
COc1cc(CC(=O)N(C)C)ccc1CN1CCCN(c2ccc(OC)c(OCCCCC(C)(C)C)c2)C1=O [CU0638]	94	30 (≈ 16.2 µg/mL)	–
COc1ccc(N2CCCN(Cc3ccnc4c3c(Cl)cn4CC(=O)N(C)C)C2=O)cc1OCCCC(F)(F)C(F)(F)F [CU0502]	320	–	–
COc1cc(CC(=O)N2CCOCC2)ccc1CN1CCCN(c2ccc(OC)c(OCCCCC3CC3)c2)C1=O [CU0598]	747	< 10	–
COc1ccc(N2CCCN(Cc3ccnc4c3c(Cl)cn4CC(=O)N(C)C)C2=O)cc1OCCC[C@H]1C[C@H]1C (racemic) [CU0516]	150	30 (≈ 17 µg/mL)	–
COc1cc(CNC(=O)OC(C)(C)C)ccc1CN1CCCN(c2ccc(OC)c(OCCCC3CC3)c2)C1=O [CU0669]	41	–	–
COc1cc(CN)ccc1CN1CCCN(c2ccc(OC)c(OCCCCC3CC3)c2)C1=O [CU0686]	618	–	–

Compound	Kd [1] [pM]	solubility kinetic [2] [µM]	IC50 [3] [pM]
COc1cc(CN)ccc1CN1CCCN(c2ccc(OC)c(OCCCC3CC3)c2)C1=O [CU0657]	1320	–	–
CCCCCOc1cc(N2CCCN(Cc3ccc(CCNC=O)cc3OC)C2=O)ccc1OC [CU0704]	2320	–	–
CCCCCOc1cc(N2CCCN(Cc3ccnc4c3c(Cl)cn4CC(=O)N3CCO[C@@H](CN(C)C)C3)C2=O)ccc1OC [CU0519]	291	–	–
CCCCCOc1cc(N2CCCN(Cc3ccc(CCN4[C@H](C)CC[C@@H]4C)cc3OC)C2=O)ccc1OC [CU0690]	1690	–	–
CCCCCOc1cc(N2CCCN(Cc3ccc(CCN4CCCC4(C)C)cc3OC)C2=O)ccc1OC [CU0671]	275	397 (≈ 213 µg/mL)	–
CCCCCOc1cc(N2CCCN(Cc3ccc(CNC(=O)c4ccco4)cc3OC)C2=O)ccc1OC [CU0597]	115	–	–
COc1cc(CCN2CCCC2)ccc1CN1CCCN(c2ccc(OC)c(OCCCC3CCC3)c2)C1=O [CU0699]	78	–	–
COc1ccc(N2CCCN(Cc3ccnc4c3c(Cl)cn4CC(=O)N(C)C)C2=O)cc1OCCCC1CC1 [CU0530]	51	–	–
COc1cc(CC(=O)N2CCOCC2)ccc1CN1CCCN(c2ccc(OC)c(OCCCC3CCC3)c2)C1=O [CU0589]	302	131 (≈ 74.1 µg/mL)	–
CCCCCOc1cc(N2CCCN(Cc3cccc4c3ccn4CC3(O)CCN(CC(=O)N(C)C)CC3)C2=O)ccc1OC [CU0675]	860	430 (≈ 267 µg/mL)	–
COc1ccc(N2CCCN(Cc3ccnc4c3c(Cl)cn4CC(=O)N(C)C)C2=O)cc1OCCC[C@H]1C[C@@H]1C [CU0610]	207	37 (≈ 21 µg/mL)	–
COc1cc(CCNC(C)=O)ccc1CN1CCCN(c2ccc(OC)c(OCCCC3CC3)c2)C1=O [CU0668]	2530	–	–
COc1cc(CCN2CCCC2)ccc1CN1CCCN(c2ccc(OC)c(OCCCCC3CC3)c2)C1=O [CU0718]	245	–	–
CCCCCOc1cc(N2CCCN(Cc3cccc4c3c(I)cn4CC(=O)N(C)C)C2=O)ccc1OC [CU0508]	9	–	–
COc1cc(CNC(=O)c2cocn2)ccc1CN1CCCN(c2ccc(OC)c(OCCCC3CC3)c2)C1=O [CU0537]	39	–	–
CCCCCOc1cc(N2CC(CNC(=O)COC)CN(Cc3cc(F)ccc3OC)C2=O)ccc1OC (centres unmarked) [SC0056]	–	–	42500
COc1cc(CN)ccc1CN1CCCN(c2ccc(OC)c(OCCCC3CCC3)c2)C1=O [CU0708]	18	–	–
CCCCCOc1cc(N2CC(C(=O)NCCOC)CN(Cc3cc(F)ccc3OC)C2=O)ccc1OC (centres unmarked) [SC0047]	–	–	36200
C#CC(C)NC(=O)Cn1cc(Cl)c2c(CN3CCCN(c4ccc(OC)c(OCCCCC)c4)C3=O)ccnc21 (centres unmarked) [CU0572]	74	–	–
COc1ccc(N2CCCN(Cc3ccnc4c3ccn4CC(=O)N(C)C)C2=O)cc1OCCC[C@H]1C[C@H]1C (racemic) [CU0737]	8100	–	–

Compound	Kd [1] [pM]	solubility kinetic [2] [µM]	IC50 [3] [pM]
CCCCCOc1cc(N2CC(COCC(=O)N(C)C)CN(Cc3cc(F)ccc3OC)C2=O)ccc1OC (centres unmarked) [SC0025]	–	–	59400
CCCCCOc1cc(N2CCCN(Cc3ccnc4c3c(Cl)cn4CC(=O)NC3CCOC3)C2=O)ccc1OC (centres unmarked) [CU0561]	140	–	–
CCCCCOc1cc(N2C[C@@H](CO)CN(Cc3cc(F)ccc3OC)C2=O)ccc1OC [SC0072]	–	–	14200
CCCCCOc1cc(N2CC(CNC(=O)c3ccnn3C)CN(Cc3cc(F)ccc3OC)C2=O)ccc1OC (centres unmarked) [SC0057]	–	–	47500
CCCCCOc1cc(N2CCCN(Cc3ccnc4c3c(Cl)cn4CC(=O)N(C)OC)C2=O)ccc1OC [CU0527]	41	–	–
CCCCCOc1cc(N2CC3(CN(C(=O)OCC)C3)CN(Cc3cc(F)ccc3OC)C2=O)ccc1OC [SC0067]	–	–	59000
CCCCCOc1cc(N2CC(Cn3ccnc3)CN(Cc3cc(F)ccc3OC)C2=O)ccc1OC (centres unmarked) [SC0042]	–	–	258000
CCCCCOc1cc(N2CC(Cn3cc(C)cn3)CN(Cc3cc(F)ccc3OC)C2=O)ccc1OC (centres unmarked) [SC0031]	–	–	96000
CCCCCOc1cc(N2CCCN(Cc3ccc(CC(=O)N4CCCC4C)cc3OC)C2=O)ccc1OC (centres unmarked) [CU0632]	880	–	–
CCCCCOc1cc(N2CC(Cn3cc(-c4ccccn4)nn3)CN(Cc3cc(F)ccc3OC)C2=O)ccc1OC (centres unmarked) [SC0038]	–	–	129000
CCCCCOc1cc(N2CCCN(Cc3ccnc4c3c(Cl)cn4CC(=O)N3CCOC3)C2=O)ccc1OC [CU0509]	69	–	–
CCCCCOc1cc(N2CC(C(N)=O)CN(Cc3cc(F)ccc3OC)C2=O)ccc1OC (centres unmarked) [SC0044]	–	–	14900
CCCCCOc1cc(N2CC3(CN(Cc4cc(F)ccc4OC)C2=O)CN(S(=O)(=O)c2ccc(C)cc2)C3)ccc1OC [SC0071]	–	–	870000
CCCCCOc1cc(N2CC(Cn3cc(-c4cnccn4)cn3)CN(Cc3cc(F)ccc3OC)C2=O)ccc1OC (centres unmarked) [SC0032]	–	–	99800
CCCCCOc1cc(N2CCCN(Cc3ccc(CNC4CCN(C)C4=O)cc3OC)C2=O)ccc1OC (centres unmarked) [CU0626]	1040	–	–
CCCCCOc1cc(N2CC3(CN(Cc4cc(F)ccc4OC)C2=O)CC3(F)F)ccc1OC (centres unmarked) [SC0068]	–	–	77200
COc1cc(CNC(=O)c2cocn2)ccc1CN1CCCN(c2ccc(OC)c(OCCCCC3CC3)c2)C1=O [CU0571]	481	–	–
CCCCCOc1cc(N2CC(COCC(=O)NC)CN(Cc3cc(F)ccc3OC)C2=O)ccc1OC (centres unmarked) [SC0030]	–	–	94500
CCCCCOc1cc(N2CCCN(Cc3ccnc4c3c(I)cn4CC(=O)N(C)C)C2=O)ccc1OC [CU0535]	53	–	–
CCCCCOc1cc(N2CCCN(Cc3ccc(CCNC(C)=O)cc3OC)C2=O)ccc1OC [CU0695]	1350	–	–
